Laboratory results published in patent US8017350B2, “Glimepiride- and insulin-induced glycosylphosphatidylinositol-specific phospholipase C regulation” (Sanofi-Aventis Deutschland GmbH, priority 2004, dated 2011).
pIC50: −log10 of the molar value. Read-outs that look alike come from different tables or passages of the source.

Experiments:
[1] = stability of compound 3; assay type: physicochemical
[2] = test system: trypanosomal GPI-PLC (T. brucei); conditions: literature; cited from earlier work
[3] = test system: isolated rat adipocytes; assay: isoproterenol-induced lipolysis measured as release of NBD-FA; assay type: cell-based
Description: Electroporation was performed as described in “Müller, G. et al., (2000) Mol. Cell. Biol. 20: 4708-4723”. Lipolysis was determined as release of glycerol or fluorescent NBD-FA from prelabeled and isoproterenol-stimulated adipocytes as described in “Müller, G. et al., (2003) Biochimie 85: 1245-1256”. Gce1 was detected by photolabeling of solubilized plasma membranes or hc/lcDIGs (10-50 μg protein) with 8-N3—[^32P]cAMP and subsequent phosphorimaging as described in “Müller, G. et al., (1994) Biochemistry 33: 12149-12159”. 5′-Nuc, aP and AChE activities were measured according to “Eliakim, R. et al., (1990) Biochim. Biophys. Acta 1355: 293-302”. Protein was determined using the BCA protein determination kit from Pierce (Rockford, Ill.) and BSA as calibration standard. SDS-PAGE was performed using precast gels (Novex, San Diego, Calif.; 10% Bis-Tris resolving gel, morpholinopropanesulfonic acid-SDS running buffer). Lumiimages were evaluated on a LumiImager using LumiImager software (Roche Diagnostics). Phosphor- and fluorescence images were processed and quantified using the Storm 860 PhosphorImager system (Molecular Dynamics, Gelsenkirchen, Germany). Figures were constructed using the ADOBE PHOTOSHOP software (Adobe Systems, Mountain View, Calif.).
FIG. 9: Isolated rat adipocytes were labeled with 0.5 mM NBD-FA (60 min, 37° C.), washed and then incubated (5 min, 37° C.) in the absence (Panels B, D) or presence of GPI-2350 (50 μM; Panels A, C) prior to challenge with increasing concentrations of glimepiride (Panels A, B) or insulin (Panels C, D). After further incubation (120 min, 37° C.) without or with isoproterenol (1 μM) as indicated, total cell suspensions were extracted with chloroform/heptane/methanol/0.1 N HCl (3/3/2/1, by vol.). The organic phases were analyzed by thin layer chromatography (diethylether/petrolether/acetic acid 78/22/1, by vol.) and fluorescence imaging in parallel with NBD-FA as marker. A typical experiment with 2 independent labelings and incubations is shown repeated once with similar results. TAG, triacylglycerol.

[4] = cited from earlier work
[5] = test system: GPI-proteins 5′-Nuc, Gce1 and aP in isolated rat adipocytes; assay: localization of lipolytically cleaved and uncleaved GPI-proteins at hcDIGs, IcDIGs and total plasma membranes (TX-114 partitioning); assay type: cell-based; conditions: GPI-2350 50 μM, insulin 10 nM, glimepiride 20 μM; for 5′-Nuc amphiph IcDIGs / 5′-Nuc hydroph. IcDIGs / 5′-Nuc hydroph. hcDIGs / Gce1 amphiph IcDIGs / Gce1 hydroph. IcDIGs / Gce1 hydroph. hcDIGs / aP amphiph IcDIGs / aP hydroph. IcDIGs / aP hydroph. hcDIGs: amphiphilic version in hcDIGs of basal adipocytes set at 100; for 5′-Nuc hydroph. PM / Gce1 hydroph. PM / aP hydroph. PM: amphiphilic version in total plasma membranes of basal adipocytes set at 100; for 5′-Nuc amphiph hcDIGs / Gce1 amphiph hcDIGs / aP amphiph hcDIGs: basal set at 100
[6] = test system: pp59Lyn and Gce1 interaction with caveolin-1 in rat adipocytes; assay: dissociation of signaling proteins from caveolin (caveolin-1 immunoprecipitates of hcDIGs); assay type: cell-based; conditions: solubilized hcDIGs; FIG. 6
Description: Solubilized DIGs (see above, 5-20 μg protein) were precleared by incubation with protein A/G-Sepharose and subsequent centrifugation (10,000×g, 5 min). The supernatant was incubated with anti-caveolin-1 antibodies (1:1000) preadsorbed on protein A/G-Sepharose in 1 ml of 10 mM Tris/HCl (pH 7.4), 150 mM NaCl, 1% TX-100 for 1 h at 4° C. The immune complexes were washed twice with the same buffer and then twice with buffer lacking TX-100 and finally subjected to SDS-PAGE performed in the absence of β-mercaptoethanol. The recovery of immunoprecipitated caveolin was normalized by homologous immunoblotting with anti-caveolin antibodies of the same blot following stripping of the membrane.
Polypeptides separated by SDS-PAGE were transferred to polyvinylidene difluoride membranes using the semidry procedure as described in “Müller, G. et al., (2001) Mol. Cell. Biol. 21: 4553-4567”. Washed membranes were incubated with anti-caveolin-1 (1:2000), anti-pp59^Lyn (1:1250), anti-aP (1:500), anti-5′-Nuc (1:750) and anti-IRS-1 (1:2000) antibodies for 4 h at 15° C. Washed membranes were incubated with horseradish peroxidase-coupled secondary goat anti-mouse (1:2000) or goat anti-rabbit IgG (1:4000) antibodies. Labeled proteins were visualized by enhanced chemiluminescence.
FIG. 6: Effect of GPI-2350 on the glimepiride/insulin-induced dissociation of signaling proteins from caveolin. Isolated rat adipocytes were treated (5 min, 37° C.) without or with GPI-2350 (left panels, 50 μM; right panels, increasing conc.) and then incubated (120 min, 37° C.) in the absence or presence of insulin (10 nM) or glimepiride (20 μM). hcDIGs were prepared from the adipocytes and then solubilized. Caveolin-1 immunoprecipitates prepared from the solubilized hcDIGs were assayed for the presence of pp59^Lyn and Gce1 by immunoblotting and photoaffinity-labeling, respectively. […]

Compound | inhibition in words [2] | 5′-Nuc amphiph IcDIGs [5] [arb. units] | 5′-Nuc hydroph. IcDIGs [5] [arb. units] | 5′-Nuc hydroph. hcDIGs [5] [arb. units] | Gce1 amphiph IcDIGs [5] [arb. units] | Gce1 hydroph. IcDIGs [5] [arb. units] | Gce1 hydroph. hcDIGs [5] [arb. units] | aP amphiph IcDIGs [5] [arb. units] | aP hydroph. IcDIGs [5] [arb. units] | aP hydroph. hcDIGs [5] [arb. units] | 5′-Nuc hydroph. PM [5] [arb. units] | Gce1 hydroph. PM [5] [arb. units] | aP hydroph. PM [5] [arb. units] | 5′-Nuc amphiph hcDIGs [5] [arb. units] | Gce1 amphiph hcDIGs [5] [arb. units] | aP amphiph hcDIGs [5] [arb. units] | induced maximal losses of pp59Lyn and Gce1 from caveolin-1 immunoprecipitates [6] | further results
CCCCCCCCCCCCP1(=O)OC2C(O)C(O)C(O)C(O)C2O1 (racemic) [GPI-2350, myo-inositol-1,2-cyclo-dodecylphosphonic acid] |  |  |  |  |  |  |  |  |  |  |  |  |  |  |  |  |  | stability as dried amorphous solid ([1]; 4° C.): dried amorphous solid for years; stability in methanol ([1]; methanol): stable in methanol for days
CCCCCCCCCCCCP(=O)(O)O[C@@H]1[C@H](O)[C@H](O)[C@@H](O)[C@H](O)[C@H]1O[C@H]1O[C@H](CO)[C@@H](O)[C@H](O)[C@H]1N [GMI-1-dodecylphosphonate] | considerably more inhibitory than the corresponding hexyl derivative |  |  |  |  |  |  |  |  |  |  |  |  |  |  |  |  | 
CCC1=C(C)CN(C(=O)NCCc2ccc(S(=O)(=O)NC(=O)N[C@H]3CC[C@H](C)CC3)cc2)C1=O [Glimepiride, glimepiride] |  | 59 ± 9 | 9 ± 3 | 48 ± 10 | 79 ± 15 | 12 ± 5 | 69 ± 9 | 49 ± 8 | 10 ± 2 | 88 ± 19 | 19 ± 5 | 40 ± 11 | 54 ± 12 | 35 ± 10 | 25 ± 10 | 10 ± 3 | 75-85% | pIC50 ([3]; Rattus norvegicus, Adipocyte, isoproterenol-induced adipocytes, FIG. 9, read-out: IC50 for reduction of NBD-FA release): 5.52; reduction of NBD-FA release in the presence of inhibitor ([3]; in the presence of 50 μM glimepiride (so in the source), Panels A, B): completely abrogated; time of greatest blood glucose lowering effects after the dose ([4]; human, in vivo): ≤ 4 h; hypoglycaemia, patients ([4]; receiving concomitant insulin for 6 months): ≤ 50%
N[C@H]1[C@@H](O[C@@H]2[C@@H](O)[C@H](O)[C@@H](O)[C@H]3OP(=O)(O)O[C@H]32)O[C@H](CO)[C@@H](O)[C@@H]1O [glucosamine (α1→6)-inositol-1,2-cyclic phosphate] | better inhibitor than GMI-1-phosphate |  |  |  |  |  |  |  |  |  |  |  |  |  |  |  |  | 
CCCCCCCCCCCCOP(=O)(O)OC1C(O)C(O)C(O)C(O)C1O (stereo not shown) [myo-inositol-1-O-dodecylphosphate] | inhibit the trypanosomal GPI-PLC |  |  |  |  |  |  |  |  |  |  |  |  |  |  |  |  | 
Insulin: Human recombinant insulin |  | 28 ± 4 | 7 ± 2 | 34 ± 8 | 35 ± 9 | 19 ± 5 | 58 ± 12 | 27 ± 5 | 4 ± 2 | 69 ± 8 | 14 ± 5 | 29 ± 7 | 31 ± 6 | 81 ± 17 | 64 ± 8 | 44 ± 7 | 35-45% | pIC50 ([3]; absence of GPI-2350, read-out: apparent IC50 for inhibition of NBD-FA release): 7.00; pIC50 ([3]; presence of GPI-2350 (50 μM), read-out: apparent IC50 for inhibition of NBD-FA release): 6.52
